The first data set is described as follows: Established and other potentially significant drug interactions with JULUCA (effect on concentration). Type of data set: in vivo, human. Particulars: based on drug interaction trials or predicted interactions.
Excerpt: These recommendations are based on either drug interaction trials of individual components or predicted interactions due to the expected magnitude of interaction and potential for serious adverse events or loss of efficacy.
Consider `CN(CCOc1ccc(NS(C)(=O)=O)cc1)CCc1ccc(NS(C)(=O)=O)cc1` [Dofetilide], for which the “Effect on Concentration of the concomitant drug” value (from here on “Effect … of the concomitant drug”) was “↑Dofetilide”.

As for `CCC(=O)C(CC(C)N(C)C)(c1ccccc1)c1ccccc1` (centres unmarked) [Methadone], the “Effect … of the concomitant drug” value is “↓Methadone”.

As for `CO[C@H]1/C=C/O[C@@]2(C)Oc3c(C)c(O)c4c(c3C2=O)C2=NC3(CCN(CC(C)C)CC3)NC2=C(NC(=O)/C(C)=C\C=C\[C@H](C)[C@H](O)[C@@H](C)[C@@H](O)[C@@H](C)[C@H](OC(C)=O)[C@@H]1C)C4=O` [Rifabutin], the “Effect … of the concomitant drug” value is given as “↔Rifabutin”.

The data set is the same for the next values; noted with them: concomitant drug with JULUCA; based on drug interaction trials or predicted interactions.
Turning to `NC(=O)N1c2ccccc2C=Cc2ccccc21` [Carbamazepine], the “Effect on Concentration of Rilpivirine” value is “↓Rilpivirine”.

Regarding `CN/C(=N/CCSCc1nc[nH]c1C)NC#N` [Cimetidine], the “Effect on Concentration of Dolutegravir” value is given as “↔Dolutegravir” and the “Effect on Concentration of Rilpivirine” value is recorded as “↓Rilpivirine”.

Turning to `CC[C@H]1OC(=O)[C@H](C)[C@@H](O[C@H]2C[C@@](C)(OC)[C@@H](O)[C@H](C)O2)[C@H](C)[C@@H](O[C@@H]2O[C@H](C)C[C@H](N(C)C)[C@H]2O)[C@](C)(OC)C[C@@H](C)C(=O)[C@H](C)[C@@H](O)[C@]1(C)O` [Clarithromycin], the “Effect on Concentration of Dolutegravir” value was “↔Dolutegravir” and the “Effect on Concentration of Rilpivirine” value is given as “↑Rilpivirine”.

For `C[C@@H]1C[C@H]2[C@@H]3CCC4=CC(=O)C=C[C@]4(C)[C@@]3(F)[C@@H](O)C[C@]2(C)[C@@]1(O)C(=O)CO` [Dexamethasone], the “Effect on Concentration of Rilpivirine” value is “↓Rilpivirine”.

`CC[C@H]1OC(=O)[C@H](C)[C@@H](O[C@H]2C[C@@](C)(OC)[C@@H](O)[C@H](C)O2)[C@H](C)[C@@H](O[C@@H]2O[C@H](C)C[C@H](N(C)C)[C@H]2O)[C@](C)(O)C[C@@H](C)C(=O)[C@H](C)[C@@H](O)[C@]1(C)O` [Erythromycin]: the “Effect on Concentration of Dolutegravir” value is recorded as “↔Dolutegravir” and the “Effect on Concentration of Rilpivirine” value is “↑Rilpivirine”.

As to `COc1ccc2nc([S@@+]([O-])Cc3ncc(C)c(OC)c3C)[nH]c2c1` [Esomeprazole], the “Effect on Concentration of Rilpivirine” value is reported as “↓Rilpivirine”.

In the case of `NC(N)=Nc1nc(CSCCC(N)=NS(N)(=O)=O)cs1` [Famotidine], the “Effect on Concentration of Dolutegravir” value is “↔Dolutegravir” and the “Effect on Concentration of Rilpivirine” value was “↓Rilpivirine”.

Turning to `Cc1c(OCC(F)(F)F)ccnc1C[S+]([O-])c1nc2ccccc2[nH]1` (centres unmarked) [Lansoprazole], the “Effect on Concentration of Rilpivirine” value was “↓Rilpivirine”.

Take `CCC(=O)C(CC(C)N(C)C)(c1ccccc1)c1ccccc1` (centres unmarked) [Methadone]: the “Effect on Concentration of Dolutegravir” value was “↔Dolutegravir” and the “Effect on Concentration of Rilpivirine” value was “↔Rilpivirine”.

As to `CNC(=C[N+](=O)[O-])NCCSCc1csc(CN(C)C)n1` [Nizatidine], the “Effect on Concentration of Dolutegravir” value is recorded as “↔Dolutegravir” and the “Effect on Concentration of Rilpivirine” value was “↓Rilpivirine”.

Regarding `NC(=O)N1c2ccccc2CC(=O)c2ccccc21` [Oxcarbazepine], the “Effect on Concentration of Rilpivirine” value is “↓Rilpivirine”.

As to `COc1ccnc(C[S+]([O-])c2nc3ccc(OC(F)F)cc3[nH]2)c1OC` (centres unmarked) [Pantoprazole], the “Effect on Concentration of Rilpivirine” value is on record as “↓Rilpivirine”.

On to `CCC1(c2ccccc2)C(=O)NC(=O)NC1=O` [Phenobarbital], for which the “Effect on Concentration of Rilpivirine” value is “↓Rilpivirine”.

For `O=C1NC(=O)C(c2ccccc2)(c2ccccc2)N1` [Phenytoin], the “Effect on Concentration of Rilpivirine” value is recorded as “↓Rilpivirine”.

Consider `COCCCOc1ccnc(C[S+]([O-])c2nc3ccccc3[nH]2)c1C` (centres unmarked) [Rabeprazole], for which the “Effect on Concentration of Rilpivirine” value is recorded as “↓Rilpivirine”.

With `CNC(=C[N+](=O)[O-])NCCSCc1ccc(CN(C)C)o1` [Ranitidine], the “Effect on Concentration of Dolutegravir” value is recorded as “↔Dolutegravir” and the “Effect on Concentration of Rilpivirine” value is “↓Rilpivirine”.

Turning to `CO[C@H]1/C=C/O[C@@]2(C)Oc3c(C)c(O)c4c(c3C2=O)C2=NC3(CCN(CC(C)C)CC3)NC2=C(NC(=O)/C(C)=C\C=C\[C@H](C)[C@H](O)[C@@H](C)[C@@H](O)[C@@H](C)[C@H](OC(C)=O)[C@@H]1C)C4=O` [Rifabutin], the “Effect on Concentration of Dolutegravir” value is “↔Dolutegravir” and the “Effect on Concentration of Rilpivirine” value was “↓Rilpivirine”.

For `CO[C@H]1/C=C/O[C@@]2(C)Oc3c(C)c(O)c4c(O)c(c(/C=N/N5CCN(C)CC5)c(O)c4c3C2=O)NC(=O)/C(C)=C\C=C\[C@H](C)[C@H](O)[C@@H](C)[C@@H](O)[C@@H](C)[C@H](OC(C)=O)[C@@H]1C` [Rifampin], the “Effect on Concentration of Rilpivirine” value is given as “↓Rilpivirine”.

`CO[C@H]1/C=C/O[C@@]2(C)Oc3c(C)c(O)c4c(O)c(c(/C=N/N5CCN(C6CCCC6)CC5)c(O)c4c3C2=O)NC(=O)/C(C)=C\C=C\[C@H](C)[C@H](O)[C@@H](C)[C@@H](O)[C@@H](C)[C@H](OC(C)=O)[C@@H]1C` [Rifapentine]: the “Effect on Concentration of Rilpivirine” value is listed as “↓Rilpivirine”.

Regarding `CC[C@H]1OC(=O)[C@H](C)C(=O)[C@H](C)[C@@H](O[C@@H]2O[C@H](C)C[C@H](N(C)C)[C@H]2O)[C@](C)(OC)C[C@@H](C)C(=O)[C@H](C)[C@H]2N(CCCCn3cnc(-c4cccnc4)c3)C(=O)O[C@]12C` [Telithromycin], the “Effect on Concentration of Dolutegravir” value was “↔Dolutegravir” and the “Effect on Concentration of Rilpivirine” value is listed as “↑Rilpivirine”.

Consider Sucralfate, for which the “Effect on Concentration of Dolutegravir” value is “↓Dolutegravir”.

A further data set can be described thus: Drug interaction trials: effect of rilpivirine on pharmacokinetics of coadministered drugs. Particulars: No Effect = 1.00.
With `CC(C)c1c(C(=O)Nc2ccccc2O)c(-c2ccccc2)c(-c2ccc(F)cc2)n1CCC(O)CC(O)CC(=O)O` (centres unmarked) [2-hydroxy-atorvastatin], the “AUC of coadministered drug, geometric mean ratio with/without EDURANT” value is 1.39; the “Cmax of coadministered drug, geometric mean ratio with/without EDURANT” value (shortened to “Cmax … geometric mean ratio with/without EDURANT”) came to 1.58; the “Cmin of coadministered drug, geometric mean ratio with/without EDURANT” value (from here on “Cmin … geometric mean ratio with/without EDURANT”) was found to be 1.32.

`CC(C)c1c(C(=O)Nc2ccc(O)cc2)c(-c2ccccc2)c(-c2ccc(F)cc2)n1CC[C@@H](O)C[C@@H](O)CC(=O)O` [4-hydroxy-atorvastatin]: the “AUC of coadministered drug, geometric mean ratio with/without EDURANT” value came to 1.23 and the “Cmax … geometric mean ratio with/without EDURANT” value is 1.28.

As for `CO[C@H]1/C=C/O[C@@]2(C)Oc3c(C)c(O)c4c(O)c(c(/C=N/N5CCN(C)CC5)c(O)c4c3C2=O)NC(=O)/C(C)=C\C=C\[C@H](C)[C@H](O)[C@@H](C)[C@@H](O)[C@@H](C)[C@H](O)[C@@H]1C` [25-desacetylrifampin], the “AUC of coadministered drug, geometric mean ratio with/without EDURANT” value came out at 0.91 and the “Cmax … geometric mean ratio with/without EDURANT” value was 1.00.

Turning to `C[C@H]1O[C@@H](O[C@H]2[C@@H](O)C[C@H](O[C@H]3[C@@H](O)C[C@H](O[C@H]4CC[C@@]5(C)[C@H](CC[C@@H]6[C@@H]5C[C@@H](O)[C@]5(C)[C@@H](C7=CC(=O)OC7)CC[C@]65O)C4)O[C@@H]3C)O[C@@H]2C)C[C@H](O)[C@@H]1O` [Digoxin], the “Cmax … geometric mean ratio with/without EDURANT” value worked out at 1.06.

As to `CC(=O)N1CCN(c2ccc(OCC3COC(Cn4ccnc4)(c4ccc(Cl)cc4Cl)O3)cc2)CC1` (centres unmarked) [Ketoconazole], the “AUC of coadministered drug, geometric mean ratio with/without EDURANT” value is listed as 0.76; the “Cmax … geometric mean ratio with/without EDURANT” value is given as 0.85; the “Cmin … geometric mean ratio with/without EDURANT” value was 0.34.

Take `CCCc1nn(C)c2c(=O)[nH]c(-c3cc(S(=O)(=O)N4CCNCC4)ccc3OCC)nc12` [N-desmethyl-sildenafil]: the “Cmax … geometric mean ratio with/without EDURANT” value stood at 0.90.

With `COc1ccc2c(O[C@@H]3C[C@H]4C(=O)N[C@]5(C(=O)NS(=O)(=O)C6CC6)C[C@H]5/C=C\CCCCN(C)C(=O)[C@@H]4C3)cc(-c3nc(C(C)C)cs3)nc2c1C` [Simeprevir], the “AUC of coadministered drug, geometric mean ratio with/without EDURANT” value is listed as 1.06; the “Cmax … geometric mean ratio with/without EDURANT” value was 1.10; the “Cmin … geometric mean ratio with/without EDURANT” value came to 0.96.

Staying with this data set, now noted: No Effect = 1.00; footnote c.
As for `C[C@H]1O[C@@H](O[C@H]2[C@@H](O)C[C@H](O[C@H]3[C@@H](O)C[C@H](O[C@H]4CC[C@@]5(C)[C@H](CC[C@@H]6[C@@H]5C[C@@H](O)[C@]5(C)[C@@H](C7=CC(=O)OC7)CC[C@]65O)C4)O[C@@H]3C)O[C@@H]2C)C[C@H](O)[C@@H]1O` [Digoxin], the “AUC(0-last) of coadministered drug, geometric mean ratio with/without EDURANT” value came to 0.98.

With `CCCc1nn(C)c2c(=O)[nH]c(-c3cc(S(=O)(=O)N4CCNCC4)ccc3OCC)nc12` [N-desmethyl-sildenafil], the “AUC(0-last) of coadministered drug, geometric mean ratio with/without EDURANT” value is given as 0.92.
